Molecules are shown by their SMILES. In brackets after ≈: the same amount, converted by molar mass. Read-outs that look alike come from different tables or passages of the source. Where only a bound is given, the exact number is not on record here.

Results on one compound are retold here after publication PMC9413440, “An Iterative Approach Guides Discovery of the FabI Inhibitor Fabimycin, a Late-Stage Antibiotic Candidate with In Vivo Efficacy against Drug-Resistant Gram-Negative Infections” (ACS Central Science, 2022).

Test [1] concerns Bacteroides cellulosilyticus KLE 2342. The experiment in a line: MIC, commensal bacteria. Format: cell-based. To be noted: KLE2342. On the procedure: (§1) II. Materials and Methods for Biological Experiments
(§2) S. aureus ATCC 29213 and E. coli MG1655 were obtained from the American Type Culture Collection (ATCC). E. coli BW25113 and E. coli JW5503 were obtained from the Keio Collection. AR-bank strains were obtained from the Centers for Disease Control and Prevention and FDA Antibiotic Resistance Isolate Bank.
(§3) Antimicrobial susceptibility tests
(§4) Susceptibility testing was performed in biological triplicate, unless noted otherwise, using the micro-dilution broth method as outlined by the Clinical and Laboratory Standards Institute. Bacteria were cultured with cation-adjusted Mueller Hinton broth (Sigma Aldrich, catalogue number: 90922). […]
(§5) NH3: m/z 391.2 → 171.0. Fabimycin: m/z 405.3 → 145.3. Power analysis was not used to determine the number of replicates. Error bars represent the standard error of the mean of three biological replicates. All compounds evaluated in biological assays were ≥95% pure.

Test [2] deals with Bacteroides vulgatus KLE 2303. Put plainly: MIC, commensal bacteria. The test is classed as cell-based. To be noted: Phocaeicola vulgatus, KLE2303. On the procedure: as §1, §2, §3, §4, §5
In test [3] the test system is Bifidobacterium longum ATCC BAA999. The experiment in a line: MIC, commensal bacteria. The test is classed as cell-based. The note with it: ATCCBAA999. As to the method:
as §1, §2, §3, §4, §5

In test [4] the test system is Blautia producta ATCC 27340. Put plainly: MIC, commensal bacteria. The test is classed as cell-based. To be noted: ATCC27340. As to the method: as §1, §2, §3, §4, §5
The test system of test [5] is Enterococcus faecalis KLE 2341. Put plainly: MIC, commensal bacteria. To be noted: KLE2341. Format: cell-based. As to the method:
as §1, §2, §3, §4, §5

Test [6] has as its system Faecalibacterium prausnitzii ATCC 27768. The experiment in a line: MIC, commensal bacteria. Format: cell-based. To be noted: ATCC27768. As to the method: as §1, §2, §3, §4, §5
In test [7] the test system is Lactobacillus reuteri ATCC 23272. The experiment in a line: MIC, commensal bacteria. Format: cell-based. To be noted: Limosilactobacillus reuteri, ATCC23272. As to the method: as §1, §2, §3, §4, §5
Test [8] concerns Streptococcus parasanguinis KLE 2375. Put plainly: MIC, commensal bacteria. The note with it: KLE2375. Format: cell-based. On the procedure: as §1, §2, §3, §4, §5
The subject of a further test is Streptococcus pneumoniae. Put plainly: MIC, Streptococcus pneumoniae strains. The test is classed as cell-based. On the procedure:
as §1, §2, §3, §4, §5

For a further test, the system named is E. coli MG1655. The experiment in a line: Selection of resistant mutants, mutant prevention concentration. The test is classed as cell-based, Escherichia coli. The note with it: 32x MIC, 0 colonies. On the procedure: (§6) Selection of resistant mutants
(§7) Resistant mutants were generated using the large inoculum method. Briefly, S. aureus 29213, E. coli MG1655, and A. baumannii 19606 (~1 x 1010 CFUs) was plated on 100-mm plates (E. coli and A. baumannii) or 150-mm plates (S. aureus) of MH agar containing either 128, 64, or 32 µg/mL fabimycin (for gram-negatives) or 0.125, 0.062, and 0.031 µg/mL fabimycin (for S. aureus). Plates were incubated at 37 °C for 48 h and counted for the presence of colony forming units.
Glycerol stocks of selected colonies were made, and resistant colonies confirmed by growing on agar plates containing the same concentration of fabimycin that they were generated at.
Sequencing of bacterial fabI
The FabI gene was amplified by PCR. Fabimycin-resistant colonies were picked and diluted in 100 µL sterile, nuclease-free H2O. […] A 10 µL portion of PCR reaction mixture was analyzed by agarose gel electrophoresis to confirm the single 1.4-kilobase pair product. […]
Candidate drugs were incubated with plasma and parent drug levels were monitored at various time points (generally t=0, 10, 20, 30, and 60 minutes) to determine the drug’s half-life in the presence of the chosen system. […] The supernatant was collected after centrifugation, and the sample analyzed by LC-MS where the percentage of compound remaining is plotted vs time to determine the drug’s half-life. […]

The test system of the next test is S. aureus ATCC 29213. Format: cell-based, Staphylococcus aureus. As to the method:
as §6, §7
Glycerol stocks of selected colonies were made, and resistant colonies confirmed by growing on agar plates containing the same concentration of fabimycin that they were generated at. […]
Forward 5’-GGG-GCC-AGC-GTT-TCT-TTT-TC-3‘ Parker, 20203
Reverse 5’-AAA-CAT-GGA-GAC-GGT-GCT-GG
Forward 5’-GTG-AGA-TCG-GCA-TGA-CAC-AA-3’ Lin, 20179
Reverse 5’-CTG-AAG-TCC-GCT-ACC-GTT-AT-3’
Compound stability in mammalian plasma […]
Each drug is tested […]
in duplicate. Compounds were diluted from 10 mM DMSO stocks to 1 µM in a 100 mM pH 7.4 phosphate buffer and incubated at 37 °C with 0.5 mg/mL of human, rat, or mouse plasma (BioreclamationIVT, Baltimore, MD). […]
Compound plasma protein binding […]
The standard assay involves equilibrium dialysis, in which compound is allowed to equilibrate between a protein-containing compartment from a protein-free compartment. Each

In the case of `Cc1c(CN(C)C(=O)/C=C/c2cnc3c(c2)CC[C@H](N)C(=O)N3)oc2ccccc12` [fabimycin], the MIC in test [1], in test [2], in test [3], in test [4], in [5] and in test [6] was more than 128 µg/mL in each case. In addition, the MIC – broadly, the smallest concentration in the dilution series that meets the test's criterion for growth inhibition – in [7] is 64 µg/mL (≈ 158 µM); in test [8] it was 128 µg/mL (≈ 316 µM); in the test with Streptococcus pneumoniae (S. pneumoniae 202-5872), more than 128 µg/mL; in the test on Streptococcus pneumoniae (S. pneumoniae 202-6154), more than 128 µg/mL; against Streptococcus pneumoniae (S. pneumoniae 202-6515) it was more than 128 µg/mL; with Streptococcus pneumoniae (S. pneumoniae 202-7382), more than 128 µg/mL. Besides, the MIC in the test on Streptococcus pneumoniae (S. pneumoniae CO314937) was more than 128 µg/mL; with Streptococcus pneumoniae (S. pneumoniae MD77773) it was more than 128 µg/mL; with Streptococcus pneumoniae (S. pneumoniae MD77841), more than 128 µg/mL; with Streptococcus pneumoniae (S. pneumoniae NYO5984) it was more than 128 µg/mL; in the test on Streptococcus pneumoniae (Streptococcus pneumoniae, ATCC49619, S. pneumoniae ATCC 49619, read-out: MIC), more than 128 µg/mL; in the test on Streptococcus pneumoniae (Streptococcus pneumoniae, S. pneumoniae NYO5986, read-out: MIC), more than 128 µg/mL. In addition, the figures for the “mutant prevention concentration (MPC)” value in the test on E. coli MG1655 and with S. aureus ATCC 29213 were 64 µg/mL and 0.125 µg/mL, respectively. Also, the frequency of resistance in the test on S. aureus ATCC 29213 is 1.8 × 10^–10 to 5.2 × 10^–10.
